Results reported in paper PMC10762035, “Molecular basis of human trace amine-associated receptor 1 activation” (Nature Communications, 2024).
Changes are numbered by the printed parent chain. Several values for one entry are separate records, joined by “and”; a condition that tells them apart may be missing. Equal entries are not always repeated. Where two headings read alike, the source gives them in different places.

Columns and labels:
hTA1 I290N = target: T1, hTA1 I290N (Homo sapiens, UniProt Q96RJ0, I290N); test: GloSensor cAMP accumulation assay, I290N mutant; format: cell-based;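 also: cells transiently co-expressing hTA1 and the GloSensor cAMP biosensor, luminescence read 30 min after compound addition at room temperature, efficacy scaled to the maximal β-PEA response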
T1 construct: expressed in transfected cells; host or cells: HEK293T
T1 sequence (Q96RJ0 1-339 I290N): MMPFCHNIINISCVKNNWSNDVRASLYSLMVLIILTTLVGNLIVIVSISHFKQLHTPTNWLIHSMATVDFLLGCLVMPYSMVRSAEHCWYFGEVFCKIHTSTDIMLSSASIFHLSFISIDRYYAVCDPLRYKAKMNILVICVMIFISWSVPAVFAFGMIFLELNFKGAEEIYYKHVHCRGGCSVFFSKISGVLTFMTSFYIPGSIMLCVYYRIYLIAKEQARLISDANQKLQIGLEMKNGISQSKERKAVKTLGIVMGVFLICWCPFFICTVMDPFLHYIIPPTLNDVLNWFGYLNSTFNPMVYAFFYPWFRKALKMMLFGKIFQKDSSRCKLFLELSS

hTA1 F195T = target: T2, hTA1 F195T (Homo sapiens, UniProt Q96RJ0, F195T); test: GloSensor cAMP accumulation assay, F195T mutant; format: cell-based;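 also: cells transiently co-expressing HA-FLAG-tagged hTA1 and the GloSensor cAMP biosensor, luminescence read 30 min after agonist addition at room temperature, concentration-response fitted by nonlinear regression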
T2 construct: expressed in transfected cells; host or cells: HEK293T
T2 sequence (Q96RJ0 1-339 F195T): T1 sequence (Q96RJ0 1-339 I290N) with F195T, N290I

hTA1 T194A = target: T3, hTA1 T194A (Homo sapiens, UniProt Q96RJ0, T194A); test: GloSensor cAMP accumulation assay, T194A mutant; details: for cAMP accumulation response, individual replicate values of the concentration-response curve: hTA1 T194A, log[Agonist], Supplementary Figure 5 source data
T3 sequence (Q96RJ0 1-339 T194A): T1 sequence (Q96RJ0 1-339 I290N) with T194A, N290I

hTA1 C88/178S = target: T4, hTA1 C88/178S (Homo sapiens, UniProt Q96RJ0, C178S/C88S); test: GloSensor cAMP accumulation assay, C88S/C178S double mutant; format: cell-based; details: for Normalized Luminescence Counts (N=2): log[Compound], single replicate values
T4 construct: expressed in transfected cells; host or cells: HEK293T
T4 sequence (Q96RJ0 1-339 C88S/C178S): T1 sequence (Q96RJ0 1-339 I290N) with C88S, C178S, N290I

[1] = C88S, C178S, each row is one independent experiment, 3 replicates

NCCc1ccc(O)cc1 [TYR, tyramine]
EC50 (hTA1 I290N; I290N, n=2, read-out: EC50): 0.492 µM
Emax (hTA1 I290N; I290N, n=2, read-out: Span ± SEM (Emax normalized to β-PEA)): 99.42 ± 0.19%
cAMP accumulation response, single replicate values (source data, Supplementary Figure 5) (hTA1 I290N; hTA1 I290N (N=2), log[Compound], M = -5): 84.4195 and 103.709 and 90.7072 and 91.6949
ΔpEC50 values (each mutant value - WT average), Mean (hTA1 I290N; hTA1 I290N mutant minus WT average): -0.07565 and -0.07195
EC50 (hTA1 I290N; hTA1 I290N mutant, Figure 3B source data, each grid row a separate experiment, 3 replicates, read-out: pEC50 values (Mean) (converted)): 0.494 µM and 0.49 µM
Emax values, Mean (hTA1 I290N; hTA1 I290N mutant, β-PEA set to 100, each grid row a separate experiment, 3 replicates): 99.2249
Emax (hTA1 I290N; hTA1 I290N mutant, β-PEA set to 100, each grid row a separate experiment, 3 replicates, read-out: Emax values (Mean)): 99.6%
increase in potency vs wild type (hTA1 F195T; F195T): 26 fold
EC50 (hTA1 F195T; F195T mutant, Figure 5B, each row one independent experiment (3 replicates), read-out: pEC50 values, Mean (converted)): 0.0102 µM and 0.0246 µM
Emax values, Mean (hTA1 F195T; F195T mutant, Figure 5B, β-PEA = 100, each row one independent experiment (3 replicates)): 119.677 and 98.2455
EC50 (hTA1 F195T; F195T, n=2, read-out: EC50): 0.00634 µM
Emax (hTA1 F195T; F195T, n=2, read-out: Span ± SEM (Emax normalized to β-PEA)): 109%
Emax values, Mean (hTA1 T194A; T149A (so in the source), single experiments (3 replicates each), β-PEA = 100): 107.638 and 114.006 and 104.682
increase in potency vs wild type (hTA1 T194A; T194A): over 10 fold
cAMP accumulation response, individual replicate values of the concentration-response curve (hTA1 T194A; M = -7.522): 49.8086 and 42.1239 and 66.6609 and 74.3619 and 75.9423 and 70.8058 and 84.4051 and 77.1239 and 72.2846
cAMP accumulation response, individual replicate values of the concentration-response curve (hTA1 T194A; M = -8): 33.9 and 32.0125 and 38.7535 and 48.6794 and 43.1478 and 39.7894 and 64.0267 and 60.8745 and 66.5574
cAMP accumulation response, individual replicate values of the concentration-response curve (hTA1 T194A; M = -8.522): 15.6995 and 22.1708 and 14.0817 and 16.28 and 19.441 and 18.4532 and 29.6632 and 30.1959 and 31.2615
cAMP accumulation response, individual replicate values of the concentration-response curve (hTA1 T194A; M = -9): 1.409 and 7.206 and 6.936 and 8.575 and 6.7973 and 9.5631 and 13.5914 and 13.9909 and 14.0797
cAMP accumulation response, individual replicate values of the concentration-response curve (hTA1 T194A; M = -9.522): 1.813 and 2.083 and -1.153 and 1.068 and 2.253 and 1.463 and 4.046 and 5.511 and 3.469
cAMP accumulation response, individual replicate values of the concentration-response curve (hTA1 T194A; M = -10): -1.827 and -1.288 and -1.4224 and 2.056 (2×) and 1.661 and 1.693 and 1.604 and 1.782
cAMP accumulation response, individual replicate values of the concentration-response curve (hTA1 T194A; M = -10.522): -1.827 and -0.7483 and -1.153 and 0.2779 and -0.3148 and -0.1172 and 1.027 and 0.8937 (2×)
cAMP accumulation response, individual replicate values of the concentration-response curve (hTA1 T194A; M = -11): -0.4787 and -1.692 and -1.153 and 0.2779 and -1.105 and -1.303 and -0.971 and 0.4497 and 0.1834
cAMP accumulation response, individual replicate values of the concentration-response curve (hTA1 T194A; M = -11.522): -1.557 and 0.8695 and -1.4224 and -1.105 (2×) and -0.7099 and 0.09457 and 0.05017 and 0.4053
cAMP accumulation response, individual replicate values of the concentration-response curve (hTA1 T194A; M = -12): -0.7483 (2×) and -1.288 and -0.9074 (2×) and -0.3148 and -0.4826 and -0.1718 and -0.2162
cAMP accumulation response, individual replicate values of the concentration-response curve (hTA1 T194A; M = -12.522): -0.07421 and 1.139 and 0.4651 and -1.105 (2×) and -0.5123 and -0.08302 and -0.2606 and 0.005772
EC50 (hTA1 T194A; pEC50 values, Mean, T149A (so in the source), single experiments (3 replicates each)): 0.00801 µM and 0.0268 µM and 0.0143 µM
EC50 (hTA1 T194A; pEC50 ± SEM, T194A): 0.0145 µM
Emax (hTA1 T194A; read-out: Span ± SEM (Emax normalized to β-PEA), T194A): 109 ± 4.66%
EC50 (hTA1 C88/178S; C88/178S, n=2, read-out: EC50): 0.516 µM
ΔEmax values (each mutant value - WT average), Mean (hTA1 C88/178S; [1]): 5.171 and -4.429
ΔpEC50 values (each mutant value - WT average), Mean (hTA1 C88/178S; [1]): -0.1652 and -0.02439
EC50 (hTA1 C88/178S; C88S, C178S, each row is one independent experiment, 3 replicates, read-out: pEC50 values, Mean (converted)): 0.607 µM and 0.439 µM
Normalized Luminescence Counts (N=2) (hTA1 C88/178S; C88S, C178S, M = -5): 80.5108 and 118.73 and 96.3411 and 73.7167 and 119.633 and 101.508
Normalized Luminescence Counts (N=2) (hTA1 C88/178S; C88S, C178S, M = -5.522): 83.5638 and 94.9277 and 84.0161 and 70.847 and 65.5606 and 81.5707
Normalized Luminescence Counts (N=2) (hTA1 C88/178S; C88S, C178S, M = -6): 61.2318 and 70.3907 and 58.4615 and 74.6229 and 67.8262 and 50.6077
Normalized Luminescence Counts (N=2) (hTA1 C88/178S; C88S, C178S, M = -6.522): 35.2248 and 33.0764 and 35.0552 and 41.5453 and 51.665 and 30.8216
Normalized Luminescence Counts (N=2) (hTA1 C88/178S; C88S, C178S, M = -7): 17.4722 and 16.0588 and 18.7726 and 21.6082 and 20.853 and 15.4156
Normalized Luminescence Counts (N=2) (hTA1 C88/178S; C88S, C178S, M = -7.522): 4.582 and 7.069 and 6.674 and 4.541 and 4.692 and 3.332
